Tests used:
[1] = Tapinarof saturated solubility in excipients (Table 1); assay type: physicochemical
In short: (§1)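 The saturated solubility of the stilbene active ingredient was measured in a range of individual pharmaceutical excipients, one excipient per sample. Each value is the solubility of the active ingredient in that excipient. It was found either by an HPLC assay for the active ingredient or by visual inspection.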

[2] = Purity of tapinarof in individual excipients on storage, related substances HPLC method; assay type: physicochemical
In short: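 The stability of the stilbene active ingredient was tested in individual excipients, one excipient per sample. Samples were analysed at time zero and after storage for up to 2 weeks. Purity of the active ingredient was determined by HPLC.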

[3] = Saturated solubility of tapinarof in individual excipients, by tapinarof assay HPLC or visually (Table 2); assay type: physicochemical; conditions: for Average saturated solubility of DMVT-505: visual solubility
In short: as §1

[4] = Gao et al., Journal of Polymer Research 2011; cited from earlier work

CC(C)c1c(O)cc(/C=C/c2ccccc2)cc1O [tapinarof, 3,5-Dihydroxy-4-isopropyl-trans-stilbene]
Solubility (tapinarof saturated solubility) ([1]; in Benzyl alcohol): 193 mg/g | Solubility (tapinarof saturated solubility) ([1]; in Diethyl sebacate): 488 mg/g | Solubility (tapinarof saturated solubility) ([1]; in Diisopropyl adipate): 187 mg/g | Solubility (tapinarof saturated solubility) ([1]; in Dimethyl isosorbide): 496 mg/g | Solubility (tapinarof saturated solubility) ([1]; in Glycerol): 14 mg/g | Solubility (tapinarof saturated solubility) ([1]; in Hexylene glycol): 386 mg/g | Solubility (tapinarof saturated solubility) ([1]; in Isopropyl alcohol): 485 mg/g | Solubility (tapinarof saturated solubility) ([1]; in Isopropyl palmitate): 231 mg/g | Solubility (tapinarof saturated solubility) ([1]; in Medium chain triglycerides): 273 mg/g | Solubility (tapinarof saturated solubility) ([1]; in Mineral oil): 0.26 mg/g | Solubility (tapinarof saturated solubility) ([1]; in Phenoxyethanol): 381 mg/g | Solubility (tapinarof saturated solubility) ([1]; in Polyethylene glycol 400): 373 mg/g | Solubility (tapinarof saturated solubility) ([1]; in Polysorbate 80): 263 mg/g | Solubility (tapinarof saturated solubility) ([1]; in Propylene carbonate): 506 mg/g | Solubility (tapinarof saturated solubility) ([1]; in Propylene glycol): 444 mg/g | Solubility (tapinarof saturated solubility) ([1]; in Sorbitan oleate): 137 mg/g | Solubility (tapinarof saturated solubility) ([1]; in Water): 0.14 mg/g | Solubility (tapinarof saturated solubility) ([1]; in diethylene glycol monoethyl ether (DEGEE)): 526 mg/g | Purity of DMVT-505 ([2]; in Almond oil, t = 0): 100.00 % area | Purity of DMVT-505 ([2]; in Almond oil, t = 2 weeks, 40° C.): 99.96 % area | Purity of DMVT-505 ([2]; in Almond oil, t = 2 weeks, 70° C.): 99.84 % area | Purity of DMVT-505 ([2]; in Arlasolve DMI, t = 0): 99.55 % area | Purity of DMVT-505 ([2]; in Arlasolve DMI, t = 2 weeks, 40° C.): 96.75 % area | Purity of DMVT-505 ([2]; in Arlasolve DMI, t = 2 weeks, 70° C.): 95.14 % area | Purity of DMVT-505 ([2]; in Castor oil, t = 0): 100.00 % area | Purity of DMVT-505 ([2]; in Castor oil, t = 2 weeks, 40° C.): 100.00 % area | Purity of DMVT-505 ([2]; in Castor oil, t = 2 weeks, 70° C.): 99.92 % area | Purity of DMVT-505 ([2]; in Crodamol GTCC, t = 0): 99.92 % area | Purity of DMVT-505 ([2]; in Crodamol GTCC, t = 2 weeks, 40° C.): 96.46 % area | Purity of DMVT-505 ([2]; in Crodamol GTCC, t = 2 weeks, 70° C.): 96.94 % area | Purity of DMVT-505 ([2]; in Diethyl sebacate, t = 0): 100.00 % area | Purity of DMVT-505 ([2]; in Diethyl sebacate, t = 2 weeks, 40° C.): 96.72 % area | Purity of DMVT-505 ([2]; in Diethyl sebacate, t = 2 weeks, 70° C.): 95.78 % area | Purity of DMVT-505 ([2]; in Diisopropyl adipate, t = 0): 100.00 % area | Purity of DMVT-505 ([2]; in Diisopropyl adipate, t = 2 weeks, 40° C.): 99.79 % area | Purity of DMVT-505 ([2]; in Diisopropyl adipate, t = 2 weeks, 70° C.): 95.94 % area | Purity of DMVT-505 ([2]; in Dipropylene glycol, t = 0): 99.97 % area | Purity of DMVT-505 ([2]; in Dipropylene glycol, t = 2 weeks, 40° C.): 99.83 % area | Purity of DMVT-505 ([2]; in Dipropylene glycol, t = 2 weeks, 70° C.): 98.89 % area | Purity of DMVT-505 ([2]; in Ethanol, t = 0): 99.89 % area | Purity of DMVT-505 ([2]; in Ethanol, t = 2 weeks, 40° C.): 99.72 % area | Purity of DMVT-505 ([2]; in Ethanol, t = 2 weeks, 70° C.): 98.57 % area | Purity of DMVT-505 ([2]; in Hexylene glycol, t = 0): 99.96 % area | Purity of DMVT-505 ([2]; in Hexylene glycol, t = 2 weeks, 40° C.): 99.54 % area | Purity of DMVT-505 ([2]; in Hexylene glycol, t = 2 weeks, 70° C.): 98.76 % area | Purity of DMVT-505 ([2]; in IPA, t = 0): 99.91 % area | Purity of DMVT-505 ([2]; in IPA, t = 2 weeks, 40° C.): 99.86 % area | Purity of DMVT-505 ([2]; in IPA, t = 2 weeks, 70° C.): 99.25 % area | Purity of DMVT-505 ([2]; in IPM, t = 0): 100.00 % area | Purity of DMVT-505 ([2]; in IPM, t = 2 weeks, 40° C.): 99.32 % area | Purity of DMVT-505 ([2]; in IPM, t = 2 weeks, 70° C.): 92.15 % area | Purity of DMVT-505 ([2]; in IPP, t = 0): 100.00 % area | Purity of DMVT-505 ([2]; in IPP, t = 2 weeks, 40° C.): 99.30 % area | Purity of DMVT-505 ([2]; in IPP, t = 2 weeks, 70° C.): 99.52 % area | Purity of DMVT-505 ([2]; in Jojoba oil, t = 0): 99.97 % area | Purity of DMVT-505 ([2]; in Jojoba oil, t = 2 weeks, 40° C.): 98.98 % area | Purity of DMVT-505 ([2]; in Jojoba oil, t = 2 weeks, 70° C.): 99.09 % area | Purity of DMVT-505 ([2]; in Kollicream ® 3C, t = 0): 100.00 % area | Purity of DMVT-505 ([2]; in Kollicream ® 3C, t = 2 weeks, 40° C.): 98.98 % area | Purity of DMVT-505 ([2]; in Kollicream ® 3C, t = 2 weeks, 70° C.): 96.51 % area | Purity of DMVT-505 ([2]; in Kollicream ® OA, t = 0): 100.00 % area | Purity of DMVT-505 ([2]; in Kollicream ® OA, t = 2 weeks, 40° C.): 99.66 % area | Purity of DMVT-505 ([2]; in Kollicream ® OA, t = 2 weeks, 70° C.): 99.46 % area | Purity of DMVT-505 ([2]; in Kollicream ® OD, t = 0): 100.00 % area | Purity of DMVT-505 ([2]; in Kollicream ® OD, t = 2 weeks, 40° C.): 99.38 % area | Purity of DMVT-505 ([2]; in Kollicream ® OD, t = 2 weeks, 70° C.): 98.11 % area | Purity of DMVT-505 ([2]; in MethoxyPEG 350, t = 0): 99.59 % area | Purity of DMVT-505 ([2]; in MethoxyPEG 350, t = 2 weeks, 40° C.): 98.42 % area | Purity of DMVT-505 ([2]; in MethoxyPEG 350, t = 2 weeks, 70° C.): 95.50 % area | Purity of DMVT-505 ([2]; in Olive oil, t = 0): 100.00 % area | Purity of DMVT-505 ([2]; in Olive oil, t = 2 weeks, 40° C.): 99.91 % area | Purity of DMVT-505 ([2]; in Olive oil, t = 2 weeks, 70° C.): 99.74 % area | Purity of DMVT-505 ([2]; in PEG 200, t = 0): 99.91 % area | Purity of DMVT-505 ([2]; in PEG 200, t = 2 weeks, 40° C.): 99.86 % area | Purity of DMVT-505 ([2]; in PEG 200, t = 2 weeks, 70° C.): 98.56 % area | Purity of DMVT-505 ([2]; in PEG 400, t = 0): 99.87 % area | Purity of DMVT-505 ([2]; in PEG 400, t = 2 weeks, 40° C.): 99.30 % area | Purity of DMVT-505 ([2]; in PEG 400, t = 2 weeks, 70° C.): 98.63 % area | Purity of DMVT-505 ([2]; in Propylene glycol, t = 0): 99.90 % area | Purity of DMVT-505 ([2]; in Propylene glycol, t = 2 weeks, 40° C.): 99.51 % area | Purity of DMVT-505 ([2]; in Propylene glycol, t = 2 weeks, 70° C.): 99.23 % area | Purity of DMVT-505 ([2]; in Sesame oil, t = 0): 100.00 % area | Purity of DMVT-505 ([2]; in Sesame oil, t = 2 weeks, 40° C.): 99.94 % area | Purity of DMVT-505 ([2]; in Sesame oil, t = 2 weeks, 70° C.): 99.67 % area | Purity of DMVT-505 ([2]; in Sorbitan monooleate (Span 80), t = 0): 100.00 % area | Purity of DMVT-505 ([2]; in Sorbitan monooleate (Span 80), t = 2 weeks, 40° C.): 100.00 % area | Purity of DMVT-505 ([2]; in Sorbitan monooleate (Span 80), t = 2 weeks, 70° C.): 99.79 % area | Purity of DMVT-505 ([2]; in Sunflower oil, t = 0): 100.00 % area | Purity of DMVT-505 ([2]; in Sunflower oil, t = 2 weeks, 40° C.): 100.00 % area | Purity of DMVT-505 ([2]; in Sunflower oil, t = 2 weeks, 70° C.): 99.51 % area | Average saturated solubility of DMVT-505 (mean of n = 3) ([3]; in Almond oil): 11.94 % w/w | Average saturated solubility of DMVT-505 (mean of n = 3) ([3]; in Aloe vera juice): 0.01 % w/w | Average saturated solubility of DMVT-505 (mean of n = 3) ([3]; in Castor oil): 7.06 % w/w | Average saturated solubility of DMVT-505 ([3]; in Dipropylene glycol): ≥20 (visual solubility) % w/w | Average saturated solubility of DMVT-505 ([3]; in Ethanol): ≥20 (visual solubility) % w/w | Average saturated solubility of DMVT-505 ([3]; in Isopropyl myristate): ≥20 (visual solubility) % w/w | Average saturated solubility of DMVT-505 (mean of n = 3) ([3]; in Jojoba oil): 8.19 % w/w | Average saturated solubility of DMVT-505 (mean of n = 3) ([3]; in Kollicream ® 3C (cocoyl caprylocaprate)): 19.03 % w/w | Average saturated solubility of DMVT-505 (mean of n = 3) ([3]; in Kollicream ® OA (oleyl alcohol)): 15.82 % w/w | Average saturated solubility of DMVT-505 (mean of n = 3) ([3]; in Kollicream ® OD (octyldodecanol)): 11.03 % w/w | Average saturated solubility of DMVT-505 ([3]; in MethoxyPEG 350): ≥20 (visual solubility) % w/w | Average saturated solubility of DMVT-505 (mean of n = 3) ([3]; in Olive oil): 11.35 % w/w | Average saturated solubility of DMVT-505 ([3]; in PEG 200): ≥20% (visual solubility) % w/w | Average saturated solubility of DMVT-505 (mean of n = 3) ([3]; in Safflower oil): 11.68 % w/w | Average saturated solubility of DMVT-505 (mean of n = 3) ([3]; in Sesame oil): 11.56 % w/w | Average saturated solubility of DMVT-505 (mean of n = 3) ([3]; in Soyabean oil): 11.68 % w/w | Average saturated solubility of DMVT-505 (mean of n = 3) ([3]; in Sunflower oil): 12.05 % w/w | Average saturated solubility of DMVT-505 (mean of n = 3) ([3]; in Walnut oil): 12.43 % w/w | Sensitivity to oxidation and photo degradation [4]: sensitive to oxidation and photo degradation

— patent publication US20220160650A1, “GEL, OINTMENT, AND FOAM FORMULATIONS OF TAPINAROF AND METHODS OF USE” (Dermavant Sciences GmbH, priority 2020, published 2022)
